Measured values from article PMC6541351, “Towards the preparation of synthetic outer membrane vesicle models with micromolar affinity to wheat germ agglutinin using a dialkyl thioglycoside” (Beilstein Journal of Organic Chemistry, 2019).
pIC50: −log10 of the molar value.

Target: T1, wheat germ agglutinin (WGA)
T1 construct: horseradish peroxidase-labelled WGA (WGA-HRP); homodimer
Test: competitive enzyme-linked lectin assay (ELLA), WGA-HRP vs PAA-GlcNAc
Assay type: binding, Triticum aestivum

With `CC(=O)N[C@H]1C(O)O[C@H](CO)[C@@H](O)[C@@H]1O` (stereo partly shown) [GlcNAc] the pIC50 was 1.46.
